T/C data for 25 compounds are collected here from PubChem BioAssay AID330 (DTP/NCI, 2004).

“And” between values parts separate entries of the source, which are not always exact repeats. Equal entries are not always repeated. Inconclusive results and toxic doses are left out.

The subject of this assay is P388 leukemia ip, CD2F1 mice, survival T/C. As to the kind of experiment: NCI In Vivo Anticancer Drug Screen. Data for tumor model P388 Leukemia (intraperitoneal) in CD2F1 (CDF1) mice. The note with it: endpoint: median survival time, higher = longer survival. The essentials:
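Mice carrying the transplanted tumor received test compound or vehicle. Survival was recorded in each group, and the value is the treated-group measurement divided by that of the vehicle-treated control group.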

Where [1] appears, read: dose: 50.0 mg/kg/injection, schedule: Q01DX005 (ip), vehicle: saline with Tween-80.
The mark [2] stands for this setting: dose: 100.0 mg/kg/injection, schedule: Q01DX005 (ip), vehicle: saline with Tween-80.
Where [3] appears, read: dose: 200.0 mg/kg/injection, schedule: Q01DX005 (ip), vehicle: saline with Tween-80.
Where [4] appears, read: dose: 25.0 mg/kg/injection, schedule: Q01DX009 (ip), vehicle: saline with Tween-80.
Where [5] appears, read: dose: 50.0 mg/kg/injection, schedule: Q01DX009 (ip), vehicle: saline with Tween-80.
Setting [6] is: dose: 100.0 mg/kg/injection, schedule: Q01DX009 (ip), vehicle: saline with Tween-80.
The mark [7] stands for this setting: dose: 25.0 mg/kg/injection, schedule: Q01DX009 (ip), vehicle: saline.
Setting [8] is: dose: 50.0 mg/kg/injection, schedule: Q01DX009 (ip), vehicle: saline.
Where [9] appears, read: dose: 60.0 mg/kg/injection, schedule: Q01DX005 (ip), vehicle: Klucel (hydroxypropylcellulose) (HPC).
[10] abbreviates: dose: 120.0 mg/kg/injection, schedule: Q01DX005 (ip), vehicle: Klucel (hydroxypropylcellulose) (HPC).
Where [11] appears, read: dose: 240.0 mg/kg/injection, schedule: Q01DX005 (ip), vehicle: Klucel (hydroxypropylcellulose) (HPC).
Where [12] appears, read: dose: 12.5 mg/kg/injection, schedule: Q01DX009 (ip), vehicle: saline.
Setting [13] is: dose: 60.0 mg/kg/injection, schedule: Q01DX005 (ip), vehicle: saline with Tween-80.
Setting [14] is: dose: 120.0 mg/kg/injection, schedule: Q01DX005 (ip), vehicle: saline with Tween-80.
The mark [15] stands for this setting: dose: 240.0 mg/kg/injection, schedule: Q01DX005 (ip), vehicle: saline with Tween-80.
Setting [16] is: dose: 50.0 mg/kg/injection, schedule: Q01DX005 (ip), vehicle: Klucel (hydroxypropylcellulose) (HPC).
The mark [17] stands for this setting: dose: 100.0 mg/kg/injection, schedule: Q01DX005 (ip), vehicle: Klucel (hydroxypropylcellulose) (HPC).

With `CCc1ccc2c(c1)N(CCCN(CCCl)CCCl)c1ccccc1S2`, the T/C runs as follows: (dose: 0.78 mg/kg/injection, schedule: Q01DX009 (ip), vehicle: saline with Tween-80) 106 % of control; (dose: 1.56 mg/kg/injection, schedule: Q01DX009 (ip), vehicle: saline with Tween-80) 101 % of control and 115 % of control.
For `COP(=O)(O)OC.[Ti]`, the T/C (dose: 25.0 mg/kg/injection, schedule: Q01DX001 (ip), vehicle: saline with Tween-80) is 100 % of control; the T/C (dose: 50.0 mg/kg/injection, schedule: Q01DX001 (ip), vehicle: saline with Tween-80) is 100 % of control; the T/C (dose: 100.0 mg/kg/injection, schedule: Q01DX001 (ip), vehicle: saline with Tween-80) was 96 % of control.
With `CC1(C)C(=O)c2ccccc2-c2ccccc21`, the T/C is 101 % of control under setting [1], 104 % of control under setting [2] and 103 % of control under setting [3].
Consider `Cc1cc(N(c2ccc([N+](=O)[O-])cc2)S(C)(=O)=O)c(C)cc1C=O`, for which the T/C was 101 % of control under setting [4], 99 % of control under setting [5] and 98 % of control under setting [6].
Regarding `CC(=Nc1ccccc1)Nc1ccccc1.[Cu+2]`, the T/C is, setting by setting: (dose: 12.5 mg/kg/injection, schedule: Q01DX009 (ip), vehicle: saline with Tween-80) 109 % of control; under setting [4], 105 % of control; under setting [5], 105 % of control.
Consider `O=C(OCCc1c[nH]c2ccccc12)N(CCCl)CCCl`, for which the T/C reads like this: (dose: 1.56 mg/kg/injection, schedule: Q01DX009 (ip), vehicle: distilled water + Tween-80) 101 % of control; (dose: 3.12 mg/kg/injection, schedule: Q01DX009 (ip), vehicle: distilled water + Tween-80) 103 % of control; (dose: 6.25 mg/kg/injection, schedule: Q01DX009 (ip), vehicle: distilled water + Tween-80) 105 % of control; (dose: 12.5 mg/kg/injection, schedule: Q01DX009 (ip), vehicle: distilled water + Tween-80) 109 % of control; (dose: 25.0 mg/kg/injection, schedule: Q01DX009 (ip), vehicle: distilled water + Tween-80) 111 % of control.
With `COc1nc(NC2OC(CO)C(O)C(O)C2O)c(/C=N/O)c(=O)n1C` (centres undefined), the T/C (dose: 60.0 mg/kg/injection, schedule: Q01DX005 (ip), vehicle: saline) was 99 % of control; the T/C (dose: 120.0 mg/kg/injection, schedule: Q01DX005 (ip), vehicle: saline) is 103 % of control; the T/C (dose: 240.0 mg/kg/injection, schedule: Q01DX005 (ip), vehicle: saline) was 99 % of control.
For `CC(/C=N/N=C(N)N)=N/N=C(N)N`, the T/C reads like this: under setting [7], 120 % of control; (dose: 25.0 mg/kg/injection, schedule: Q04DX003 (ip), vehicle: saline) 100 % of control; under setting [8], 150 % of control; (dose: 50.0 mg/kg/injection, schedule: Q04DX003 (ip), vehicle: saline) 100 % of control; (dose: 75.0 mg/kg/injection, schedule: Q01DX009 (ip), vehicle: saline) 170 % of control; under setting [6], 86 % of control.
In the case of `CN(C)C1CS(=O)(=O)OC2=C1CCOc1ccccc12` (centres undefined), the T/C under setting [9] is 97 % of control, the T/C under setting [10] is 91 % of control and the T/C under setting [11] was 89 % of control.
Take `C[S+](C)c1ccc(Cl)cc1`: the T/C is, setting by setting: under setting [12], 95 % of control; under setting [7], 91 % of control; under setting [8], 108 % of control.
As to `[Cu+2].[NH-]C(CCC(N)=O)C(=O)O.[NH-]C(CCC(N)=O)C(=O)O` (centres undefined), the T/C reads like this: (dose: 6.25 mg/kg/injection, schedule: Q04DX003 (ip), vehicle: saline) 100 % of control; (dose: 12.5 mg/kg/injection, schedule: Q04DX003 (ip), vehicle: saline) 90 % of control.
`COc1ccc(C2NC(c3ccc(OC)cc3)C3CCCC2C3O)cc1` (centres undefined): the T/C by setting is: (dose: 100.0 mg/kg/injection, schedule: Q04DX003 (ip), vehicle: saline) 100 % of control; (dose: 200.0 mg/kg/injection, schedule: Q04DX003 (ip), vehicle: saline) 97 % of control; (dose: 400.0 mg/kg/injection, schedule: Q04DX003 (ip), vehicle: saline) 94 % of control.
Regarding `C=C1C(=O)O[C@@H]2C[C@@]3(C)CC(=O)C=C(C)[C@@H]3C[C@H]12`, the T/C was 108 % of control (dose: 6.25 mg/kg/injection, schedule: Q04DX003 (ip), vehicle: saline with Tween-80); 104 % of control (dose: 12.5 mg/kg/injection, schedule: Q04DX003 (ip), vehicle: saline with Tween-80); 108 % of control (dose: 25.0 mg/kg/injection, schedule: Q04DX003 (ip), vehicle: saline with Tween-80); 100 % of control (dose: 50.0 mg/kg/injection, schedule: Q04DX003 (ip), vehicle: saline with Tween-80).
For `O=C1S/C(=C2\C(=O)N(CN3CCCCC3)c3ccc(Br)cc32)C(=O)N1CN1CCCCC1`, the T/C by setting is: under setting [9], 100 % of control; under setting [10], 101 % of control; under setting [11], 99 % of control.
For `COC(=O)N1CCCc2cc3c(cc(OC)c(OC)c3c3[nH]c4ccccc4c23)CC1`, the T/C runs as follows: (dose: 50.0 mg/kg/injection, schedule: Q01DX005 (ip), vehicle: Klucel + Tween-80) 100 % of control; (dose: 100.0 mg/kg/injection, schedule: Q01DX005 (ip), vehicle: Klucel + Tween-80) 95 % of control; (dose: 200.0 mg/kg/injection, schedule: Q01DX005 (ip), vehicle: Klucel + Tween-80) 91 % of control.
As for `Cc1c(-c2nnc(N)o2)cc([N+](=O)[O-])cc1[N+](=O)[O-]`, the T/C by setting is: under setting [13], 98 % of control; under setting [14], 100 % of control; under setting [15], 99 % of control.
Consider `C[C@]12C=C[C@@]3(CC[C@@H]4[C@](C)(CO)[C@H](O)CC[C@@]4(C)[C@@H]3CC1)C2`, for which the T/C (dose: 3.5 mg/kg/injection, schedule: Q01DX005 (ip), vehicle: Klucel (hydroxypropylcellulose) (HPC)) was 89 % of control; the T/C (dose: 7.0 mg/kg/injection, schedule: Q01DX005 (ip), vehicle: Klucel (hydroxypropylcellulose) (HPC)) was 100 % of control; the T/C (dose: 14.0 mg/kg/injection, schedule: Q01DX005 (ip), vehicle: Klucel (hydroxypropylcellulose) (HPC)) was 92 % of control; the T/C (dose: 28.0 mg/kg/injection, schedule: Q01DX005 (ip), vehicle: Klucel (hydroxypropylcellulose) (HPC)) was 96 % of control.
For the compound `CCOC(=O)COc1cc2c(cc1C(C)c1ccc(OCc3ccccc3)c(OC)c1)OCO2` (centres undefined), the T/C is 87 % of control under setting [16] and 90 % of control under setting [17].
Regarding `CC1(C)CC2(CC(C)(C)N1O)NC(=O)OC2=O`, the T/C is, setting by setting: under setting [13], 97 % of control; under setting [14], 97 % of control; under setting [15], 106 % of control.
Regarding `CC(=O)C(C)OP(=O)(O)OCC[N+](C)(C)C` (centres undefined), the T/C by setting is: under setting [12], 100 % of control; under setting [7], 104 % of control; under setting [8], 114 % of control.
Regarding `Cc1cc2nc(Cc3nc4cc(C)c(C)cc4[nH]3)[nH]c2cc1C`, the T/C was 90 % of control under setting [4]; 90 % of control under setting [5]; 100 % of control and 95 % of control under setting [6]; 90 % of control (dose: 200.0 mg/kg/injection, schedule: Q01DX009 (ip), vehicle: saline with Tween-80).
In the case of `Cc1ccc(C(=O)Cc2ccccc2C#N)cc1`, the T/C was 102 % of control and 103 % of control (dose: 12.5 mg/kg/injection, schedule: Q01DX005 (ip), vehicle: Klucel (hydroxypropylcellulose) (HPC)); 88 % of control and 97 % of control (dose: 25.0 mg/kg/injection, schedule: Q01DX005 (ip), vehicle: Klucel (hydroxypropylcellulose) (HPC)); 97 % of control under setting [16]; 105 % of control under setting [17].
`c1ccc2c(SCCCCCCSc3c4ccccc4nc4ccccc34)c3ccccc3nc2c1`: the T/C reads like this: under setting [9], 90 % of control; under setting [10], 86 % of control.
For `CCCCCCCCCCCCOC(=O)c1ccc(Br)cc1`, the T/C was 104 % of control (dose: 100.0 mg/kg/injection, schedule: Q01DX009 (ip), vehicle: Klucel (hydroxypropylcellulose) (HPC)) and 102 % of control (dose: 200.0 mg/kg/injection, schedule: Q01DX009 (ip), vehicle: Klucel (hydroxypropylcellulose) (HPC)).
For the compound `Cc1ccc2c(c1)S(=O)(=O)c1ccc3ccccc3c1N2`, the T/C reads like this: under setting [1], 101 % of control; under setting [2], 99 % of control; under setting [3], 100 % of control.
